How the values were obtained:
T-cell line = assay: Tested for its effective dose required to inhibit the replication of HIV-1 in human T-cell line; type: functional; details: read-out: ED50 (the source's name)
[1] = Tested for the cytotoxicity against HIV-1 in human T-cell line; type: cell-based; details: read-out: TD50 (the source's name)

Structure (SMILES)	EC50 (T-cell line) [µM]	CC50 [1] [µM]
Cc1cn([C@H]2C[C@H](F)[C@@H](CO)O2)c(=O)[nH]c1=O [ALOVUDINE]	0.005	100
Cc1cn(C2CC(F)C(COP(=O)(OCC(Cl)(Cl)Cl)OCC(Cl)(Cl)Cl)O2)c(=O)[nH]c1=O (stereo not given)	0.01	100
COC(=O)C(NP(=O)(OCC1OC(n2cc(C)c(=O)[nH]c2=O)CC1F)OCC(Cl)(Cl)Cl)C(C)C (stereo not given)	0.3	> 100
COC(=O)C(Cc1ccccc1)NP(=O)(NC(Cc1ccccc1)C(=O)OC)OCC1OC(n2cc(C)c(=O)[nH]c2=O)CC1F (stereo not given)	5	> 100
COC(=O)C(C)NP(=O)(OCC1OC(n2cc(C)c(=O)[nH]c2=O)CC1F)OCC(Cl)(Cl)Cl (stereo not given)	0.3	> 100

Reference: ChEMBL document CHEMBL1151515, “Attempts to introduce chemotherapeutic nucleotides into cells: studies on the anti-HIV agent FDT” (Bioorg Med Chem Lett, 1991)
